{"source": "patent US12178878B2", "about": "“Amyloid peptide scaffolds coordinate with Alzheimer's disease drugs” (The University of Massachusetts, priority 2018, dated 2024)", "key": {"[1]": {"test_system": "[…] (SEQ ID NO: 3) amyloid peptide", "test": "Coordination at higher peptide concentration (amyloid gel, 5 mg/mL), inhibitor capturing", "assay_type": "binding", "conditions": "FYTGAIIGNYF gel 5 mg/mL, 1000 μM inhibitor solution added, by MS", "method": "Amyloid Fibrils Preparation and Characterization. For the formation of fibrils, the amyloid peptides were dispersed in DI water at a 10 mg/ml, vortexed, heated at 60° C. for 30 sec, and sonicated for 15 mins (this cycle was repeated 10 times overall), and finally left overnight at room temperature to form a hydrogel. […] That was confirmed with Field Emission Scanning Electron Microscopy (FESEM) and Congo Red staining (CR).\nCoordination Studies at Higher Peptide Concentrations and Inhibitor Capturing. […] (SEQ ID NO: 4) or […] (SEQ ID NO: 3) amyloid peptide gels (10 mg/mL, 1 mL volume) and was left to physically complex under stirring overnight (the final peptide concentration was diluted to 5 mg/mL). A control using 1 mL of 0.1 M PBS (no inhibitor) was also prepared. The complexed amyloid/inhibitor materials were then transferred to 5 mL conical Eppendorf tubes, and centrifuged for 15 mins at 4,400 rpm (14° C.). The supernatant was decanted, and 2 mL of DI water were subsequently added to wash the pellet (followed by vortexing until obtaining a homogenous dispersion) in order to remove any unbound inhibitor. The samples were then centrifuged again at the same conditions so as to pelletize the amyloid materials, and the supernatant was decanted. Another 2 mL of DI water were then added into the pellet, the mixture was vortexed, and the physically bound inhibitor into the amyloid peptides was quantified by UV-Vis between 200-600 nm and MS. This step is denoted as wash 1 in our study. Two additional pellet purification cycles were realized with replacement of the decanted volume each time with 2 mL of fresh DI water (denoted as wash 2 and wash 3 respectively). The inhibitor-containing amyloid peptides were normalized at 400 nm over the respective no inhibitor-containing ones at the specific washing step."}, "[2]": {"test_system": "[…] (SEQ ID NO: 4) amyloid peptide", "assay_type": "binding", "conditions": "YFTGAIIGNFY 1 mg/mL, 150 μM inhibitor loaded, by MS", "method": "Amyloid Peptide/Inhibitor Coordination Studies in Dilute Solutions. […]. As a negative control, 1 mL of 0.1 M PBS buffer was added. The mixtures were vortexed and sonicated to homogenously disperse any solid aggregates and stirred overnight to allow for coordination. The mixtures were transferred to 2 mL Eppendorf tubes and centrifuged for 15 mins at 4,400 rpm (14° C.) to pelletize the amyloid bound-inhibitors, and the supernatant was decanted. Subsequently, 1 mL of DI water was added to wash the pellet (followed by vortexing until obtaining a homogenous dispersion) in order to remove any unbound inhibitor. The samples were then centrifuged again at the same conditions so as to pelletize the amyloid materials, and the supernatant was decanted. Another 1 mL of DI water was then added into the pellet, the mixture was vortexed, and the physically bound inhibitor into the dilute amyloid peptide dispersions was quantified by UV-Vis between 200-600 nm and MS. This step is denoted as wash 1 in our study. Two additional pellet purification cycles were realized with replacement of the decanted volume each time with 1 mL of fresh DI water (denoted as wash 2 and wash 3 respectively). The inhibitor-containing peptides amyloids were normalized at 400 nm over the respective no inhibitor-containing amyloid peptides at the specific washing step, and the measured inhibitor peak values (at 315 nm and 323 nm) were subtracted from that of the amyloid peptide carriers at the same wavelength and concentration. The amount of inhibitors coordinated with the amyloid peptide carriers was quantified based on a calibration curve by both UV-Vis and MS.\n. The peak at 315 nm was selected for inhibitor quantification due the absence of peaks at that range for both peptides. […]. However, the peak at 315 nm was selected for inhibitor quantification, and the following equation was used for both peptides: A315=A315 ([…]/Donepezil)−A315 ([…])\n[…]. The peak at 323 nm was used for inhibitor quantification due the absence of peaks at that range for both peptides. […]."}, "[3]": {"molecular_target": "AChE (Homo sapiens, UniProt P22303)", "sequence (P22303 32-614)": "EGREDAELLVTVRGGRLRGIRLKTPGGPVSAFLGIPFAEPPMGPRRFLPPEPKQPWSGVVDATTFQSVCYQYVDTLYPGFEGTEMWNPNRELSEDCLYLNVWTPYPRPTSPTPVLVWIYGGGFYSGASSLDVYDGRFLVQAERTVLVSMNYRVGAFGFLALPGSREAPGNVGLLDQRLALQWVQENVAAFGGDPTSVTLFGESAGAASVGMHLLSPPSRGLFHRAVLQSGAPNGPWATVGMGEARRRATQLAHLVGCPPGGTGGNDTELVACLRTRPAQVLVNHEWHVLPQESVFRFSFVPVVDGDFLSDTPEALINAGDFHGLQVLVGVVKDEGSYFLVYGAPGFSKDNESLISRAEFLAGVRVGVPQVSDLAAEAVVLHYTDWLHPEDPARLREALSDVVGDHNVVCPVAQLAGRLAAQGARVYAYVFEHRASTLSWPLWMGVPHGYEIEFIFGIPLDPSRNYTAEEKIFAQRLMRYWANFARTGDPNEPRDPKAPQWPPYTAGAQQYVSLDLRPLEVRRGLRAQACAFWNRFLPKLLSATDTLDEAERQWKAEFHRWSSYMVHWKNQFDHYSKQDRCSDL", "conditions": "in vitro, Ellman's assay, among marketed AD drugs; cited from earlier work"}, "[4]": {"test_system": "[…] (SEQ ID NO: 3) amyloid peptide", "test": "Amyloid peptide/inhibitor coordination in dilute solution (1 mg/mL), drug captured after pellet washings", "assay_type": "binding", "conditions": "FYTGAIIGNYF 1 mg/mL, 150 μM inhibitor loaded, by MS", "method": "Amyloid Peptide/Inhibitor Coordination Studies in Dilute Solutions. […] Subsequently, 1 mL of DI water was added to wash the pellet (followed by vortexing until obtaining a homogenous dispersion) in order to remove any unbound inhibitor. The samples were then centrifuged again at the same conditions so as to pelletize the amyloid materials, and the supernatant was decanted. Another 1 mL of DI water was then added into the pellet, the mixture was vortexed, and the physically bound inhibitor into the dilute amyloid peptide dispersions was quantified by UV-Vis between 200-600 nm and MS. This step is denoted as wash 1 in our study. Two additional pellet purification cycles were realized with replacement of the decanted volume each time with 1 mL of fresh DI water (denoted as wash 2 and wash 3 respectively). The inhibitor-containing peptides amyloids were normalized at 400 nm over the respective no inhibitor-containing amyloid peptides at the specific washing step, and the measured inhibitor peak values (at 315 nm and 323 nm) were subtracted from that of the amyloid peptide carriers at the same wavelength and concentration. The amount of inhibitors coordinated with the amyloid peptide carriers was quantified based on a calibration curve by both UV-Vis and MS.\nThe peak at 315 nm was selected for inhibitor quantification due the absence of peaks at that range for both peptides. […] However, the peak at 315 nm was selected for inhibitor quantification, and the following equation was used for both peptides: A315=A315 ([…]/Donepezil)−A315 ([…])\nThe peak at 323 nm was used for inhibitor quantification due the absence of peaks at that range for both peptides."}, "[5]": {"test_system": "[…] (SEQ ID NO: 4) amyloid peptide", "assay_type": "binding", "conditions": "YFTGAIIGNFY gel 5 mg/mL, 1000 μM inhibitor solution added, by MS", "method": "Amyloid Fibrils Preparation and Characterization. For the formation of fibrils, the amyloid peptides were dispersed in DI water at a 10 mg/ml, vortexed, heated at 60° C. for 30 sec, and sonicated for 15 mins (this cycle was repeated 10 times overall), and finally left overnight at room temperature to form a hydrogel.\nA control using 1 mL of 0.1 M PBS (no inhibitor) was also prepared. The complexed amyloid/inhibitor materials were then transferred to 5 mL conical Eppendorf tubes, and centrifuged for 15 mins at 4,400 rpm (14° C.). The supernatant was decanted, and 2 mL of DI water were subsequently added to wash the pellet (followed by vortexing until obtaining a homogenous dispersion) in order to remove any unbound inhibitor. The samples were then centrifuged again at the same conditions so as to pelletize the amyloid materials, and the supernatant was decanted. Another 2 mL of DI water were then added into the pellet, the mixture was vortexed, and the physically bound inhibitor into the amyloid peptides was quantified by UV-Vis between 200-600 nm and MS. This step is denoted as wash 1 in our study. Two additional pellet purification cycles were realized with replacement of the decanted volume each time with 2 mL of fresh DI water (denoted as wash 2 and wash 3 respectively). The inhibitor-containing amyloid peptides were normalized at 400 nm over the respective no inhibitor-containing ones at the specific washing step."}}, "note": "Like-named read-outs stand apart in the source and are kept apart here."}
{"smiles": "CC12CC3CC(C)(C1)CC(N)(C3)C2", "note": "[memantine]", "values": [{"measurement": "AD compound captured, Wash 1", "setting": "[1]; 1st pellet wash", "result": "32 ± 2", "unit": "µM"}, {"measurement": "AD compound captured, Wash 2", "setting": "[1]; 2nd pellet wash", "result": "16 ± 2", "unit": "µM"}, {"measurement": "AD compound captured, Wash 3", "setting": "[1]; 3rd pellet wash", "result": "12 ± 3", "unit": "µM"}, {"measurement": "AD compound captured, Wash 1", "setting": "[2]; 1st pellet wash", "result": "8 ± 1", "unit": "µM"}, {"measurement": "AD compound captured, Wash 2", "setting": "[2]; 2nd pellet wash", "result": "3 ± 1", "unit": "µM"}, {"measurement": "AD compound captured, Wash 3", "setting": "[2]; 3rd pellet wash", "result": "2 ± 1", "unit": "µM"}, {"measurement": "inhibition towards AChE", "setting": "[3]", "result": "negligible inhibition"}, {"measurement": "AD compound captured, Wash 1", "setting": "[4]; 1st pellet wash", "result": "18 ± 3", "unit": "µM"}, {"measurement": "AD compound captured, Wash 2", "setting": "[4]; 2nd pellet wash", "result": "5 ± 2", "unit": "µM"}, {"measurement": "AD compound captured, Wash 3", "setting": "[4]; 3rd pellet wash", "result": "4 ± 2", "unit": "µM"}, {"measurement": "AD compound captured, Wash 1", "setting": "[5]; 1st pellet wash", "result": "21 ± 1", "unit": "µM"}, {"measurement": "AD compound captured, Wash 2", "setting": "[5]; 2nd pellet wash, room temperature", "result": "10 ± 1", "unit": "µM"}, {"measurement": "AD compound captured, Wash 3", "setting": "[5]; 3rd pellet wash, room temperature", "result": "8 ± 1", "unit": "µM"}]}
